The record followed here is patent publication US11203773B2, “Designer ribosomes and methods of use thereof for incorporating non-standard amino acids into polypeptides” (Yale University, priority 2016, dated 2021).

Experiment [1] deals with T1, E. coli GlyRS (Escherichia coli, UniProt P00960). The settings on record: aminoacylation; for kcat: 2 μM tRNA.
Experiment [2] deals with T1, E. coli GlyRS. The settings on record: for krev (apparent rate of deacylation): deacylation of aminoacyl-tRNA, GlyRS 2 μM, 25° C.
Procedure: (§3) Deacylation assays. Large scale (200 μL) aminoacylation reactions were initiated using the conditions described above (iv). The reactions were allowed to proceed for 1 h at 37° C., after which each reaction mixture was phenol/chloroform extracted. In each case, the aminoacylated tRNA product was ethanol precipitated, and the buffer was exchanged using a micro Bio-Spin 6 column (BioRad) following the procedure specified by the manufacturer and 100 mM HEPES (pH 8.0) containing 100 mM KCl. The precise extent of aminoacylation was calculated using the procedure described above; the 2 μM concentration corresponds to total aminoacylated tRNA. Assays were performed at 25° C. in a 50 μL reaction with 2 μM [^32P]-aminoacyl-tRNA in 100 mM HEPES (pH 7.0) containing 100 mM KCl and 15 mM MgCl2.
The target in experiment [3] is T1, E. coli GlyRS. The settings on record: adenylation; for kcat (min^−1) or RSA (^32P-ATP formed min^−1 enzyme μM^−1): 25° C., pH 7.0.
Procedure: (§4) Adenylation of α- and β-Amino Acids Catalyzed by E. coli PheRS, GlyRS, MetRS, and GluRS. […] Briefly, assay mixtures (50 μL) assembled at 25° C. contained the requisite α- or β^3-amino acid substrate (between 5 μM and 5 mM) in 100 mM HEPES (pH 7.0) containing 100 mM KCl, 15 mM MgCl2, 2 mM ATP, 0.5 mM NaPPi, and 50 μCi [^32P]-NaPPi). Reactions were initiated upon addition of enzyme (10 nM MetRS, 10 nM PheRS, or 50 nM GlyRS; 100 nM GluRS for reactions with α-Glu or 1.13 μM GluRS for reactions with β^3-Glu), incubated for various times (10 sec to 10 min), and halted by adding a 5 μL reaction aliquot to 100 μL quenching solution (10% charcoal, 0.5% HCl). 50 μL of 200 mM NaPPi in 1.5 N HCl was then added to each quenched reaction to decrease nonspecific binding of pyrophosphate to the charcoal. Each quenched reaction was then filtered through Whatman filter paper (number 3), previously washed with washing solution (200 mM NaPPi in 1 N HCl) using a 96-well BIO-DOT® apparatus (BioRad). Each well of the apparatus was then washed four times with 200 μL aliquots of washing solution (by pipetting washing solution up and down at least 10 times per wash) to minimize nonspecific binding of pyrophosphate to charcoal. Each experimental well was paired with an analogous control well (no-enzyme control) that lacked enzyme; a single membrane contained time points for both α- and β^3-amino acid substrates and all no-enzyme controls. The membrane was allowed to dry and was protected with a sheet of Microseal B adhesive seals (Biorad) prior to exposure to a BAS Storage Phosphor screen. Screens were imaged on a Typhoon 9500FLA biomolecule imager and the signal intensity of each dot was quantified using ImageJ to determine the relative amount of [^32P]-ATP formed as a function of time (Ctime). Each raw value were corrected by subtracting the intensity of the dot corresponding to the appropriate no-enzyme control (Cblank) and the resulting corrected values of Ccorr (representing the relative amounts of ^32P-ATP formed) were plotted as a function of time to determine values of relative ^32P-ATP formed per minute. Those values were divided by the concentration of enzyme used, and the data was plotted as relative specific activity (^32P-ATP formed min^−1×μM^−1 enzyme) and fitted using Prism by performing nonlinear regression using the least squares method and Equation 1 to obtain RSA (relative specific activity) and KM values (Equation 1 and Table 2).
(§5) In Equation 1, v is the apparent relative specific activity (relative ^32P-ATP formed per minute) obtained at each substrate concentration divided by the enzyme concentration, RSA is the relative specific activity, S is the concentration of substrate, and KM is the Michaelis-Menten constant.
The target in experiment [4] is T2, E. coli PheRS (Escherichia coli, UniProt P08312). The experiment is described as follows: Deacylation assay of [32P]-aminoacyl-tRNA. Type of experiment: biochemical. On the set-up: made in house; host or cells: E. coli BL21(DE3).
T2 sequence (P08312 whole entry): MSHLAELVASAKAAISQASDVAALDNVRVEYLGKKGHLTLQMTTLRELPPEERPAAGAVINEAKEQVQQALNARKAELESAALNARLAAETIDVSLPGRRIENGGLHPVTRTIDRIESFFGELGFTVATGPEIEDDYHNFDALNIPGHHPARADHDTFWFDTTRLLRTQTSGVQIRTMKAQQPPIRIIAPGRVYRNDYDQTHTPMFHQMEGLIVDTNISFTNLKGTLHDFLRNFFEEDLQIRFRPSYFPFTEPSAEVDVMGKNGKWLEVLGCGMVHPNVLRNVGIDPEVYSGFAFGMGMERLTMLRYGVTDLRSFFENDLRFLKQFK
T2 sequence (P07395 whole entry partner): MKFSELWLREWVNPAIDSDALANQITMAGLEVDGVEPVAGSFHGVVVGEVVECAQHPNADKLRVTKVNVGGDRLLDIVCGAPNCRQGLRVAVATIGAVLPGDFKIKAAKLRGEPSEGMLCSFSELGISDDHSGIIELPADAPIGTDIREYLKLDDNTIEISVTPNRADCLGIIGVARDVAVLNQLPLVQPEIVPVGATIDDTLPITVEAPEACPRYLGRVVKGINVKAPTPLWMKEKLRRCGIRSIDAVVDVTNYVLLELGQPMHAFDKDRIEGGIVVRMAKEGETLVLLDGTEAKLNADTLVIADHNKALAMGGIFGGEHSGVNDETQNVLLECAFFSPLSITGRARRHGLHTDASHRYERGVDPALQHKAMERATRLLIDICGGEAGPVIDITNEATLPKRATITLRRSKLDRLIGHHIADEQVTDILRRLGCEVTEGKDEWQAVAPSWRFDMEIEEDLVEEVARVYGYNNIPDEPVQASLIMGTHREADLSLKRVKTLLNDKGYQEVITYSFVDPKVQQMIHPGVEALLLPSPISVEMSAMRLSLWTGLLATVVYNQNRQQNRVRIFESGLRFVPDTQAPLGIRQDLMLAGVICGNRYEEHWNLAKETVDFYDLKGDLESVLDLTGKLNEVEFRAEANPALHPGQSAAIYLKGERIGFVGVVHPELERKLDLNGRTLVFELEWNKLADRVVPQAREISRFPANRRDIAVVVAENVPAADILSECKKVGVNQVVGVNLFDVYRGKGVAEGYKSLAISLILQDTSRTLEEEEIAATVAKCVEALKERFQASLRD
Procedure: as §3
Experiment [5] deals with T2, E. coli PheRS. The experiment is described as follows: Aminoacylation of 32P-tRNA with α- and β3-amino acids. Type of experiment: biochemical. Set-up: made in house; host or cells: E. coli BL21(DE3).
Experiment [6] concerns the target T2, E. coli PheRS. The experiment is described as follows: Adenylation of α- and β3-amino acids, pyrophosphate exchange assay.
Procedure: as §4, §5
Experiment [7] relates to BL21(DE3) cells expressing only WT ribosomes. The experiment is described as follows: Expression of DHFR in 19/20 minimal media supplemented with amino acid (SDS-PAGE). The format is cell-based, E. coli. The source says:
(§1) To evaluate the extent of in vivo β^3-amino acid incorporation, BL21 (DE3) cells were co-transformed via electroporation (vide infra) with two plasmids. […] The other plasmid encoded either the WT rrnb sequence (pLK35-rrnb), the 040329 mutant reported by Hecht (pLK35-040329.rrnb), or the P7A7 mutant (pLK35-P7A7.rrnb) identified during the puromycin sensitivity screen described above.
(§2) ii. β^3-amino acid incorporation. The subsequent protocol for in vivo β^3-amino acid incorporation employed minimal media and was adapted from procedures reported by Tirrell and Cropp (Liu, et al., Bioorg Med Chem Lett, 20:5613 (2010); Mandavi, et al., J Am Chem Soc, 135:2979 (2013)). Briefly, all 5 mL of the co-transformed cells prepared as described above were diluted into 100 mL of LB containing 50 ng/mL of kanamycin and […] of carbenicillin and grown to OD600=1.0, spun down, and then resuspended in 1/10th the original volume of 19/20 minimal media (10.5 g/L M9 salts, 0.1 mM CaCl2, 1 mM MgSO4, 1% glycerol, 100 μM of each amino acid (minus α-Phe), 25 mg/L thiamine, […] carbenicillin, 30 ng/mL kanamycin, 1 mM IPTG) supplemented with 1 mM of α-Phe or a β^3-Phe analog. Cells were grown overnight (18 h) at 37° C. while shaking (200 rpm). The cells were harvested by centrifugation (10 min at 4000×g) and resuspended in lysis buffer (50 mM NaH2PO4, 300 mM NaCl, 10 mM imidazole (pH 8.0)). Lysis was performed by sonication (Branson Sonifier 250) with 5 cycles of 20 s on, 20 s off. Lysed cells were then centrifuged for 20 min at 15000×g. The clarified cell lysate was incubated with Ni-NTA resin (Qiagen) for 1 h while gently rotating at 4° C. The Ni-NTA column was washed with lysis buffer prior to eluting proteins with elution buffer (50 mM NaH2PO4, 300 mM NaCl, 300 mM imidazole (pH 8.0)). Elutions were analyzed with SDS-PAGE to prepare material for in-gel trypsin digestions. Controls included side-by-side growths in (1) unsupplemented 19/20 minimal media, which contains only low levels of α-Phe present (negative control); (2). 19/20 minimal media supplemented with 1 mM α-Phe (positive control) and (3) and 19/20 minimal media supplemented with 1 mM β^3-Gly (negative control; β^3-aa that is not a β^3-Phe analog).

The test system of experiment [8] is BL21(DE3) cells expressing P7A7 ribosomes along with WT ribosomes. The description is as above. The format is cell-based, E. coli. The settings on record: media supplemented with 1 mM of the amino acid.
Excerpt: as §1, §2

The subject of experiment [9] is BL21(DE3) cells expressing 040329 ribosomes along with WT ribosomes. The description is as above. The format is cell-based, E. coli. The note with it: 040329 + WT ribosomes, media supplemented with 1 mM of the amino acid.
Excerpt: as §1, §2

Experiment [10] concerns E. coli strains (BL21 (DE3)) with pUC18 rrnb plasmids. The experiment is described as follows: Screen of library for sensitivity to erythromycin (growth inhibition, OD600). The settings on record: 6.8 μM erythromycin, E. coli with pUC18 plasmid encoding WT rrnb, 16-18 h. Type of experiment: cell-based.
Procedure: (§6) To screen the resulting E. coli strains for antibiotic resistance, 2 μL of the 15% glycerol stocks prepared above were added to 98 μL of growth assay buffer (LB media (pH 8.35), 100 μg/mL carbenicillin, 1.0 mM IPTG, 6.8 μM erythromycin) in 384-well plates (Corning #3707). […] After 16-18 h, the extent of cell growth inhibition in the presence of antibiotic was determined by measuring the OD600 of each well using a SpectraMax M5 plate reader (Molecular Devices). The antibiotic-dependent inhibition of cell growth in each well was determined using Equation 4: [100−(OD600+A/OD600−A)×100] Equation 4 In this equation, OD600+A represents OD600 of wells containing antibiotic and OD600−A represents OD600 of wells lacking antibiotic.
The test system is the same in experiment [11]. The experiment is described as follows: Screen of erythromycin-resistant library for sensitivity to β3-puromycin (growth inhibition, OD600). The format is cell-based. The note with it: 250 μM β^3-puromycin, E. coli with pUC18 plasmid encoding WT rrnb.
Procedure: as §6
The 1986 erythromycin-resistant clones identified above were then screened for sensitivity to β^3-puromycin sensitivity as described above, except that 250 μM β^3-puromycin was substituted for erythromycin.
Experiment [12] concerns DHFR position 128 translated in E. coli BL21 (DE3). The experiment is described as follows: Spectral counting (LC-MS/MS of tryptic peptides) of β3-(p-Br)Phe and α-Phe incorporation into DHFR in vivo. Type of experiment: cell-based. The note with it: cells expressing 040329 ribosomes.
Excerpt: as §1
as §2, with “19/20 minimal media supplemented with 1 mM α-Phe (positive control) and (3) and 19/20 minimal media supplemented with 1 mM β^3-Gly (negative control; β^3-aa that is not a β^3-Phe analog).” left out

Read-outs that look alike come from different tables or passages of the source.

T1 sequence (P00960 whole entry): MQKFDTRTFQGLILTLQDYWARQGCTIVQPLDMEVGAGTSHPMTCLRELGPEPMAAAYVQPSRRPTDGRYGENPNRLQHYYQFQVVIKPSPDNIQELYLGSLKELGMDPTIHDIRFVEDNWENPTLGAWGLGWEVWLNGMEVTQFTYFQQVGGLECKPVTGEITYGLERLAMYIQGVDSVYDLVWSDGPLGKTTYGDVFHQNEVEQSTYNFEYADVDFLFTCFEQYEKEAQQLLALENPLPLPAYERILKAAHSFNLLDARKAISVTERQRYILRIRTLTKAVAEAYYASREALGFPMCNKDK
T1 sequence (P00961 whole entry, further chain): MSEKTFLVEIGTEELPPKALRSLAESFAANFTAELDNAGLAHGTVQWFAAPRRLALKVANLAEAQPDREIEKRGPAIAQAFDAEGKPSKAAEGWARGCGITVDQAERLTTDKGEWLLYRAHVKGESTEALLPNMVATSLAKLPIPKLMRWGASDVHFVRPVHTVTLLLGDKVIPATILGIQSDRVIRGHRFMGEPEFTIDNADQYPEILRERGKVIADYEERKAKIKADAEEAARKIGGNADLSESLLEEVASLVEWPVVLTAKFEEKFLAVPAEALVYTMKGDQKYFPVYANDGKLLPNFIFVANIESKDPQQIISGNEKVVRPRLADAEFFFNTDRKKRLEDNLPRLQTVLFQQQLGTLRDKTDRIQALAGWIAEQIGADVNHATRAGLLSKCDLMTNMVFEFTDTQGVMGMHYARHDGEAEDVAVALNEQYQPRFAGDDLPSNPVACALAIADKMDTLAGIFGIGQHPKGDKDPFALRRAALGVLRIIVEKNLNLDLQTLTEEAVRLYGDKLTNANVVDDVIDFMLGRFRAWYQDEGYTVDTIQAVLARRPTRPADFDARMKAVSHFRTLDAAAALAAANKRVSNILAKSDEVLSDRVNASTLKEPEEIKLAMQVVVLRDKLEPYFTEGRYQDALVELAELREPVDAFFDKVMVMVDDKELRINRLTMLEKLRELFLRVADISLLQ

With `NCC(=O)O` [α-Gly, Glycine], in experiment [1], the Km amounted to 13.4 ± 4.7 µM, the “Ratio (α/β) of KM” value amounted to 1.2 ± 1.00, the “Ratio (α/β) of kcat” value is reported as 1.9 ± 1.0 and the “Ratio (α/β) of kcat/KM” value came out at 1.5 ± 0.7. The kcat in experiment [1] amounted to 0.0967 ± 0.0083 s⁻¹. Further, the “krev (apparent rate of deacylation)” value in [2] was 0.21 ± 0.08 min⁻¹. In [2] (deacylation, GlyRS), the “Ratio (α/β) of krev” value is given as 0.3 ± 0.1. Further, in experiment [3], the Km amounted to 9.8 ± 3.5 µM, the “Ratio (α-/β-) of KM” value came out at 0.14 ± 0.11, the “Ratio (α-/β-) of RSA” value is reported as 1.14 ± 0.24 and the “Ratio (α-/β-) of kcat/KM” value came to 7.97 ± 6.46. The “kcat (min^−1) or RSA (^32P-ATP formed min^−1 enzyme μM^−1)” value (from here on “kcat (min^−1) or RSA”) in [3] is 166.8 ± 12.8 ^32P-ATP formed min^−1 enzyme μM^−1.
Turning to `N[C@@H](Cc1ccccc1)C(=O)O` [α-Phe, Phenylalanine], the “krev (apparent rate of deacylation)” value in experiment [4] (deacylation of aminoacyl-tRNA, PheRS 500 nM, 25° C.) was found to be 0.15 ± 0.008 min⁻¹. Moreover, in experiment [4] (deacylation, PheRS), the “Ratio (α/β) of krev” value was found to be 0.49 ± 0.05. Besides, in experiment [5], the “Ratio (α/β) of KM” value turned out to be 1.7 ± 0.9, the “Ratio (α/β) of kcat” value stood at 3.7 ± 0.7 and the “Ratio (α/β) of kcat/KM” value is listed as 2.2 ± 1.3. Also, in [5] (2 μM tRNA), the kcat amounted to 0.0143 ± 0.00183 s⁻¹. Further, in experiment [6], the “Ratio (α-/β-) of KM” value was determined as 0.18 ± 0.11, the “Ratio (α-/β-) of RSA” value came out at 1.4 ± 0.3 and the “Ratio (α-/β-) of kcat/KM” value is 8.06 ± 5.63. The “kcat (min^−1) or RSA” value in experiment [6] (RSA, 25° C., pH 7.0) is reported as 59.1 ± 7.1 ^32P-ATP formed min^−1 enzyme μM^−1. Further, in experiment [7] (α-Phe added), the “level of DHFR, higher than trace amounts” value was “approximately 8 fold”. Moreover, the “level of DHFR” value in [8] is “lower levels”. In addition, the “level of DHFR” value in experiment [9] is listed as “significant levels”.
`CC[C@H]1OC(=O)[C@H](C)[C@@H](O[C@H]2C[C@@](C)(OC)[C@@H](O)[C@H](C)O2)[C@H](C)[C@@H](O[C@@H]2O[C@H](C)C[C@H](N(C)C)[C@H]2O)[C@](C)(O)C[C@@H](C)C(=O)[C@H](C)[C@@H](O)[C@]1(C)O` [erythromycin]: the growth inhibition result in experiment [10] is “full growth inhibition”.
As to `COc1ccc(CC(N)CC(=O)NC2C(CO)OC(n3cnc4c(N(C)C)ncnc43)C2O)cc1` (stereo not drawn) [β^3-puromycin], the growth inhibition result in [11] is “lack of growth inhibition”.
Regarding `NCCC(=O)O` [β-Gly, β^3-glycine], the Km came out at 11.1 ± 2.8 µM in [1] and 68.4 ± 47.3 µM in [3]. In addition, the kcat in experiment [1] worked out at 0.0517 ± 0.0017 s⁻¹. For the same compound, the “amount of DHFR generated” value in experiment [7] (19/20 minimal media supplemented with 1 mM of the amino acid) is reported as “trace amounts”. Also, the “level of DHFR” value is on record as “lower levels” in experiment [8] and “significant levels” in experiment [9]. The “incorporation at position 128 of DHFR (LC-MS/MS)” value in [12] is listed as “no evidence”. The “krev (apparent rate of deacylation)” value in experiment [2] is 0.71 ± 0.09 min⁻¹. The “kcat (min^−1) or RSA” value in experiment [3] is reported as 146.4 ± 29.2 ^32P-ATP formed min^−1 enzyme μM^−1.
